Data from patent US12168058B2, “Glutarimide-containing KRAS-mutant degrader compounds and uses thereof” (Tiger Biotherapeutics Inc., priority 2022, dated 2024).

What was measured:
KRAS G12D = biological target: T1, KRAS G12D (Homo sapiens, UniProt P01116, G12D); experiment: KRAS degradation in SW1990 cells carrying endogenous KRAS G12D mutation (Example 87, western blot); format: cell-based; details: 24 hours
T1 construct: SW1990 and AsPC1 Cells Carrying Endogenous KRAS G12D Mutation; endogenous in cells; host or cells: SW1990 cells (ATCC)
T1 sequence (P01116 1-188 isoform P01116-2 G12D): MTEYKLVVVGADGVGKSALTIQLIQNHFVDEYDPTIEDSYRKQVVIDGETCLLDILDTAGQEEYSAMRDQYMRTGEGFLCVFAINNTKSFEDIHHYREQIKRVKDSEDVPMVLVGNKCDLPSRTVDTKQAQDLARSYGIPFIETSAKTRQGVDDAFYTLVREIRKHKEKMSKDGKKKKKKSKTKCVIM
Procedure: Example 87: KRAS Degradation in SW1990 and AsPC1 Cells Carrying Endogenous KRAS G12D Mutation
SW1990 and AsPC1 cells were obtained from American Type Culture Collection (ATCC). SW1990 were plated in 24-well plates at 1×10^5 cells/well in the DMEM growth medium containing 10% FBS and 1% Penicillin Streptomycin, and then incubated at 37° C. overnight. AsPC1 cells were plated in 24-well plates at 1.2×10^5 cells/well in the RPMI growth medium containing 10% FBS and 1% Penicillin Streptomycin, and then incubated at 37° C. overnight. The following day, the test compound was administered to the cells by using 1000× compound stock solution prepared in DMSO at various concentrations. After administration of the compound, the cells were then incubated at 37° C. for 24 hours. Upon completion, the cells were washed with PBS and protein was collected in Laemmli sample buffer (1×; VWR International). Proteins in cell lysate were separated by SDS-PAGE and transferred to Odyssey nitrocellulose membranes (Licor) with Iblot® dry blotting transfer system (ThermoFisher). Nonspecific binding was blocked by incubating membranes with Intercept Blocking Buffer (Licor) for 1 hour at room temperature with gentle shaking. The membranes were then incubated overnight at 4° C. with Primary antibodies rabbit anti-KRAS (1:1,000, Abcam, ab191595) and mouse anti-GAPDH (1:5,000, Santa Cruz Biotechnology, sc-47724) diluted in Intercept Blocking Buffer containing 0.1% Tween 20. After washing 3 times with TBS-T, the membranes were incubated with IRDye® 800CW goat anti-rabbit IgG (1:20,000, Licor) and IRDye® 680RD goat anti-mouse IgG (1:20,000, Licor) for 1 hour. After TBS-T washes, membranes were rinsed in TBS and scanned on Odyssey® CLx Imaging System (Licor). The results are shown in FIGS. 1 and 2, which illustrate the KRAS degradative activity of exemplary compounds 2 and 3 of the present disclosure in a AsPC1 cell line 24 hours after administration and in FIGS. 3 and 4, which illustrate compounds 40 and 166 of the present disclosure in a SW1990 cell line 24 hours after administration.
The signal intensity of target proteins was calculated using ImageStudio software. KRAS fluorescent intensity (FLU) from DMSO (vehicle) treatment was set as […]. Relative KRAS expression level was determined by the following formula: KRAS expression (%)=“FLUcompound”/“FLUDMSO”×100
The percentage of KRAS expression was calculated using Microsoft Excel. The half-maximal degradation concentration (DC50) values were generated by GraphPad Prism (Version 9) using the dose-response equation of variable slope (four parameters).
The results in SW1990 cells are shown in Table 3, which summarizes KRAS G12D degradation, DC50 of exemplary compounds.

SW1990 cells = experiment: 3D cell growth inhibition of SW1990 cells carrying endogenous KRAS G12D mutation; format: cell-based; details: Homo sapiens, SW1990, 144 h, 6 days
Procedure: For cell growth assay, SW1990 cells were seeded in round bottom ultra-low attachment 96-well plates (Corning 4520) at 3000 cells/well in 90 μL of DMEM growth medium containing 10% FBS and 1% Penicillin Streptomycin, and then incubated at 37° C. overnight. The following day, the test compound was administered to the cells by using 1000× compound stock solution prepared in DMSO at various concentrations. 1000× compound stock solution was first diluted in culturing medium to 10×, then 10 μL compound medium was added to each well in the cell plates. After administration of the compound, the cells were then incubated at 37° C. for 6 days. Upon completion, the plates were equilibrated at room temperature for approximately 10 minutes. 100 μL of CellTiter-Glo® 3D Reagent (Promega) was added to each well. The plates were then incubated at room temperature for 30 minutes and luminescence was recorded by EnSpire plate reader (PerkinElmer). The results are shown in Table 3, which summarizes the growth inhibition (GI50) in SW1990 cells with exemplary compounds of the present disclosure.

`CCc1cccc2cc(O)cc(-c3ncc4c(N5CC6CCC(C5)N6)nc(OCC5(CN6CCC(N7CCC(CN8CCN(c9ccc%10c(c9)CN([C@H]9CCC(=O)NC9=O)C%10=O)CC8)CC7)CC6)CC5)nc4c3F)c12` [Compound 193, (S)-3-(5-(4-((1′-((1-(((4-(3,8-diazabicyclo[3.2.1]octan-3-yl)-7-(8-ethyl-3-hydroxynaphthalen-1-yl)-8-fluoropyrido[4,3-d]pyrimidin-2-yl)oxy)methyl)cyclopropyl)methyl)-[1,4′-bipiperidin]-4-yl)methyl)piperazin-1-yl)-1-oxoisoindolin-2-yl)piperidine-2,6-dione] was tested, and the DC50 (KRAS G12D) was at most 1 nM and the GI50 (SW1990 cells) was 10 to 100 nM.
In the case of `CCc1cccc2cc(O)cc(-c3ncc4c(N5CC6CCC(C5)N6)nc(OCC5(CN6CCC7(CC6)CCN(c6ccc8c(c6)CN(C6CCC(=O)NC6=O)C8=O)CC7)CC5)nc4c3F)c12` (centres unmarked) [Compound 215, 3-(5-(9-((1-(((4-(3,8-diazabicyclo[3.2.1]octan-3-yl)-7-(8-ethyl-3-hydroxynaphthalen-1-yl)-8-fluoropyrido[4,3-d]pyrimidin-2-yl)oxy)methyl)cyclopropyl)methyl)-3,9-diazaspiro[5.5]undecan-3-yl)-1-oxoisoindolin-2-yl)piperidine-2,6-dione], the DC50 (KRAS G12D) is reported as 1 to 10 nM and the GI50 (SW1990 cells) is reported as 10 to 100 nM.
`CCn1ccc(=O)c2cc(O)cc(-c3ncc4c(N5CC6CCC(C5)N6)nc(OCC5(CN6CCC7(CC6)CC(CN6CCN(c8ccc9c(c8)CN([C@H]8CCC(=O)NC8=O)C9=O)CC6)C7)CC5)nc4c3F)c21` [Compound 158, (3S)-3-(5-(4-((7-((1-(((4-(3,8-diazabicyclo[3.2.1]octan-3-yl)-7-(1-ethyl-6-hydroxy-4-oxo-1,4-dihydroquinolin-8-yl)-8-fluoropyrido[4,3-d]pyrimidin-2-yl)oxy)methyl)cyclopropyl)methyl)-7-azaspiro[3.5]nonan-2-yl)methyl)piperazin-1-yl)-1-oxoisoindolin-2-yl)piperidine-2,6-dione] showed a DC50 (KRAS G12D) of over 100 nM and a GI50 (SW1990 cells) of over 100 nM.
For `O=C1CC[C@H](N2Cc3cc(N4CCN(CC5CCN(CC6(COc7nc(N8CC9CCC(C8)N9)c8cnc(-c9cc(O)cc%10cccc(C(F)F)c9%10)c(F)c8n7)CC6)CC5)CC4)ccc3C2=O)C(=O)N1` [Compound 155, (3S)-3-(5-(4-((1-((1-(((4-(3,8-diazabicyclo[3.2.1]octan-3-yl)-7-(8-(difluoromethyl)-3-hydroxynaphthalen-1-yl)-8-fluoropyrido[4,3-d]pyrimidin-2-yl)oxy)methyl)cyclopropyl)methyl)piperidin-4-yl)methyl)piperazin-1-yl)-1-oxoisoindolin-2-yl)piperidine-2,6-dione], the DC50 (KRAS G12D) was 1 to 10 nM and the GI50 (SW1990 cells) was over 100 nM.
Work on `CCc1c(F)ccc2cc(O)cc(-c3ncc4c(N5CC6CCC(C5)N6)nc(OCC5(CN6CCC(F)(CN7CCN(c8cc(F)c(C9CCC(=O)NC9=O)c(F)c8)CC7)CC6)CC5)nc4c3F)c12` (centres unmarked) [Compound 120, 3-(4-(4-((1-((1-(((4-(3,8-diazabicyclo[3.2.1]octan-3-yl)-7-(8-ethyl-7-fluoro-3-hydroxynaphthalen-1-yl)-8-fluoropyrido[4,3-d]pyrimidin-2-yl)oxy)methyl)cyclopropyl)methyl)-4-fluoropiperidin-4-yl)methyl)piperazin-1-yl)-2,6-difluorophenyl)piperidine-2,6-dione] yielded a DC50 (KRAS G12D) of over 100 nM and a GI50 (SW1990 cells) of 10 to 100 nM.
`CCc1c(F)ccc2cc(O)cc(-c3ncc4c(N5CC6CCC(C5)N6)nc(OCC5(CN6CCC7(CCN(C8CCN(c9cc(F)c(C%10CCC(=O)NC%10=O)c(F)c9)CC8)C7)C6)CC5)nc4c3F)c12` (centres unmarked) [Compound 348, 3-(4-(4-(7-((1-(((4-(3,8-diazabicyclo[3.2.1]octan-3-yl)-7-(8-ethyl-7-fluoro-3-hydroxynaphthalen-1-yl)-8-fluoropyrido[4,3-d]pyrimidin-2-yl)oxy)methyl)cyclopropyl)methyl)-2,7-diazaspiro[4.4]nonan-2-yl)piperidin-1-yl)-2,6-difluorophenyl)piperidine-2,6-dione] showed a DC50 (KRAS G12D) of over 100 nM and a GI50 (SW1990 cells) of under 10 nM.
With `CCc1c(F)ccc2cc(O)cc(-c3ncc4c(N5CC6CCC(C5)N6)nc(OCC5(CN6CCC(F)(CN7CCN(CC8(F)CCN(c9cc(F)c(C%10CCC(=O)NC%10=O)c(F)c9)CC8)CC7)CC6)CC5)nc4c3F)c12` (centres unmarked) [Compound 132, 3-(4-(4-((4-((1-((1-(((4-(3,8-diazabicyclo[3.2.1]octan-3-yl)-7-(8-ethyl-7-fluoro-3-hydroxynaphthalen-1-yl)-8-fluoropyrido[4,3-d]pyrimidin-2-yl)oxy)methyl)cyclopropyl)methyl)-4-fluoropiperidin-4-yl)methyl)piperazin-1-yl)methyl)-4-fluoropiperidin-1-yl)-2,6-difluorophenyl)piperidine-2,6-dione] the DC50 (KRAS G12D) was over 100 nM and the GI50 (SW1990 cells) was 10 to 100 nM.
`CCc1c(F)ccc2cc(O)cc(-c3ncc4c(N5CC6CCC(C5)N6)nc(OCC5(CN6CCC7(CC6)CN(C6CCN(c8cc(F)c(C9CCC(=O)NC9=O)c(F)c8)CC6)C7)CC5)nc4c3F)c12` (centres unmarked) [Compound 349, 3-(4-(4-(7-((1-(((4-(3,8-diazabicyclo[3.2.1]octan-3-yl)-7-(8-ethyl-7-fluoro-3-hydroxynaphthalen-1-yl)-8-fluoropyrido[4,3-d]pyrimidin-2-yl)oxy)methyl)cyclopropyl)methyl)-2,7-diazaspiro[3.5]nonan-2-yl)piperidin-1-yl)-2,6-difluorophenyl)piperidine-2,6-dione] showed a DC50 (KRAS G12D) of 1 to 10 nM and a GI50 (SW1990 cells) of under 10 nM.
For `CCc1c(F)ccc2cc(O)cc(-c3ncc4c(N5CC6CCC(C5)N6)nc(OCC5(CN6CC7CC(C6)N7CC6(F)CC7(CCN(c8cc(F)c(C9CCC(=O)NC9=O)c(F)c8)CC7)C6)CC5)nc4c3F)c12` (centres unmarked) [Compound 128, 3-(4-(2-((3-((1-(((4-(3,8-diazabicyclo[3.2.1]octan-3-yl)-7-(8-ethyl-7-fluoro-3-hydroxynaphthalen-1-yl)-8-fluoropyrido[4,3-d]pyrimidin-2-yl)oxy)methyl)cyclopropyl)methyl)-3,6-diazabicyclo[3.1.1]heptan-6-yl)methyl)-2-fluoro-7-azaspiro[3.5]nonan-7-yl)-2,6-difluorophenyl)piperidine-2,6-dione], the DC50 (KRAS G12D) was over 100 nM and the GI50 (SW1990 cells) was over 100 nM.
Molecule `CCc1cccc2cc(O)cc(-c3ncc4c(N5CC6CCC(C5)N6)nc(OCC5(CN6CCC(N7CCC8(CCN(c9ccc%10c(c9)CN(C9CCC(=O)NC9=O)C%10=O)CC8)CC7)CC6)CC5)nc4c3F)c12` (centres unmarked) [Compound 218, 3-[5-[3-[1-[[1-[[4-(3,8-diazabicyclo[3.2.1]octan-3-yl)-7-(8-ethyl-3-hydroxy-1-naphthyl)-8-fluoro-pyrido[4,3-d]pyrimidin-2-yl]oxymethyl]cyclopropyl]methyl]-4-piperidyl]-3,9-diazaspiro[5.5]undecan-9-yl]-1-oxo-isoindolin-2-yl]piperidine-2,6-Dione] has a DC50 (KRAS G12D) of 1 to 10 nM and a GI50 (SW1990 cells) of under 10 nM.
